In brackets after ≈: the same amount, converted by molar mass.
Legend:
[1] = tested on: Zymoseptoria tritici (Septotia tritici); test: Growth of fungal plant pathogen on amended potato dextrose agar (colony surface area); type: cell-based; conditions: 0.5 g/L in buffered PDA pH 6.2, 10 days, darkness, 68° F.
Method: Zymoseptoria tritici (Septotia tritici) was grown in petri dishes on buffered (pH 6.2) potato dextrose agar (PDA), amended with penicillin (100 mg/L) and streptomycin (100 mg/L) as well as 2HOP (0.5 g/L) or […]). Five replicate plates/treatments were used and the cultures were grown for 10 days in darkness at 68° F. At the end of the 10-day period, the cultures were assessed in terms of the total surface area of growth of the colonies.

[2] = tested on: Peace Lily (Spathiphyllum); test: Cold tolerance in a cold sensitive plant; type: in vivo; conditions: foliar 1 g/L; 4 days of 34-35° F. for 5-6 hours/day one week after treatment
Method: The popular ornamental plant, the “Peace Lily”, is in the genus Spathiphyllum and all species are indigenous to the tropics. […] Three groups of containerized plants (in 6-inch pots, growing in a standard potting media) were established, and foliarly treated with 1 g/L 2HOP or LPGA. A surfactant (polyalkyl glucoside) at 0.25% v/v was added to both treatments to improve leaf coverage. Plants were treated and one week later were exposed 4 days to a diurnal regime of low temperatures (34° F. to 35° F.) for at least 5-6 hours/day and a high temperature of 55° F. to 57° F. for the remainder of the day. Plants were under a natural light regime. […] See Table 10 in FIG. 7A and FIG. 7B.

plant parasitic nematode = test: Soil plant parasitic nematode populations, grapevines, Site 2; type: in vivo, nematodes; conditions: Site 2, L-PGA combined with Nemacur
Method: L-PGA was applied by drenching the roots with a solution (5 liters per plant) containing 1 g/L L-PGA. Nemacur® 400ec was applied as a labelled commercial treatment to specific rows at the trial locations by injection through the micro irrigation system (7.5 ml/vine). Each treatment comprised 20 vines in five replicate blocks (4 vines/replicate). […] Several treatments were undertaken as per Tables 6 & 7. Untreated vines received the standard grower cultural management programs. At both sites the plants were ungrafted. […] Yield data were collected at both sites.

[3] = tested on: Hard Red Wheat seeds (variety Glenn); test: Seed treatment, greenhouse-grown wheat leaf emergence; type: in vivo; conditions: greenhouse 65° F.
Method: The treatments were pre-diluted in an equivalent of 2 liters of water and applied to one ton of seed. The seeds were planted in a 30 cm×30 cm flat tray at 1 seed/cm^2 in a naturally illuminated greenhouse maintained at 65° F. See Table 19 in FIG. 14.

lettuce plants = test: Foliar treatment of lettuce plants, tissue aromatic amino acids; type: in vivo; conditions: 0.5 g/L
Description: This is further supported by the data in Table 4 where foliar treatment of lettuce plants with […]) or 2HOP (0.5 g/L) increased the tissue levels of aromatic amino acids which are synthesized in the Shikimic acid pathway, a pathway that has a known role in modulation of plant innate tolerance to abiotic and biotic stresses such as disease.

[4] = tested on: Wheat seeds (Skyfall variety); test: Seed treatment, field grown wheat emergence and yield; type: in vivo
Description: The treatments were pre-diluted in an equivalent of 2 liters of water and applied to one ton of seed. The seeds were planted in the fall at a rate of 200 kg/ha.

[5] = tested on: free-living (beneficial nematodes); conditions: in vivo
Method: (§1) Grapevines were treated with L-PGA alone or in combination with Nemacur® at two sites in California. […] Vines at both sites were 6 years old and replanted into sandy soil (CEC <7 meq/100 g soil) previously planted with vines. […] Site 2 was in Fresno County (var: Thompson seedless) and at this site several parasitic nematode species were in evidence (Table 8). Several treatments were undertaken as per Tables 6 & 7. Untreated vines received the standard grower cultural management programs. At both sites the plants were ungrafted. At Site 1, soil levels of nematodes were assessed prior to the onset of treatments and at various times throughout the trial (as given in Table 7). Plants were treated in the spring, summer, and fall and assessed 12, 13, 15 and, 24 months later at Site 1. Yield data were collected at both sites. Site 1 was treated for two seasons and yield was collected over two seasons. At Site 2, yields were collected and soil nematode levels were assessed 18 months after the onset of the treatments. Site 2 was only treated for one season and only one crop year was assessed.

Grapevines = test: Yield from grapevines grown in nematode infested soil; type: in vivo, grapevine; conditions: L-PGA root drench 1 g/L, Nemacur 7.5 ml/vine, vs untreated vines
Method: as §1

oat seedlings [6] = test: Soil application, carbon fixation capability in greenhouse grown oats; type: in vivo; conditions: soil drench 75 nanomoles daily; for increase of CO2 fixation compared to the untreated: plants 28 days old
Method: Sets (replicates) of oat seedlings were treated with 2HOP, L-PGA, or left untreated. Seeds were planted in standard potting soil in a greenhouse at a constant 75° F. under natural light, supplied a standard liquid nutrient solution, and treated daily with 75 nanomoles of either 2HOP or L-PGA beginning 14 days after seedling emergence. The treatments were applied as a soil drench. The CO2 fixation rates were measured when plants were 28 days old. The ribulose bisphosphate carboxylase (RUBISCO) activation state was measured when plants were 26 days old. The rates for 20 plants were averaged for each set of plants. […] L-PGA increased CO2 fixation compared to the untreated by 21%. However, when 2HOP is compared to L-PGA in terms of CO2 fixation, 2HOP fixed CO2 at over an 11% higher rate (see Table 14).

Wheat (Winter White) = test: Herbicide phytotoxicity on greenhouse wheat with and without 2HOP or L-PGA; type: in vivo; conditions: for phytotoxic impact of herbicides on wheat: combined with herbicides, foliar, assessed 10 days after application; for canopy biomass compared to the untreated: solo applications, 10 days post-treatment, visual
Method: Wheat (Winter White) seeds (5 g) were sown in a 1-gallon pot in a greenhouse under natural light with a diurnal temperature range of 75° F. to 90° F. Various herbicides were applied alone or in combinations with L-PGA or 2HOP. Materials were applied at the equivalent rate of 100 L water/Ha with 0.25% v/v polyalkyl glucoside added as a wetting agent. There were 4 replicates per treatment, with 1 pot/replicate. 10 days after sowing, plants received a light cover spray at an equivalent application volume of 25 gallons/acre. Plants were destructively assessed 10 days later by measuring the total above-ground biomass of each replicate.

[7] = tested on: Root Knot nematode (Meloidogyne incognita, M. javanica, M. arenaria, and M. hapla); test: Soil Root Knot nematode populations, grapevines, Site 1; type: in vivo; conditions: Site 1, after 15 months
Method: as §1

oat seedlings [8] = test: Nitrate uptake rate of hydroponic oat seedlings; type: in vivo; conditions: first four hours of treatment
Method: Oat seedlings were either treated or untreated and their rates of nitrogen uptake were measured. Oat seedlings were hydroponically grown in a greenhouse under ambient light at 75° F. with a complete standard soluble nutrient solution. They were acclimated to constant light, then deprived of nitrogen for a period, and then their nitrogen (nitrate) was replenished with or without 2HOP in the nutrient solution. The plant root systems were submerged in the appropriate solutions and the plants were allowed to grow and take up nitrate. The depletion of nitrate from the solution was measured every four hours to determine the rate of nitrate uptake by the plants.

Pepper and tomato plants = test: Leaf numbers, leaf area and dry weight of greenhouse-grown tomato and pepper; type: in vivo; conditions: foliar 1 g/L or 0.5 g+0.5 g/L, assessed at eight weeks
Method: Pepper and tomato plants were grown from seedlings for eight weeks in a greenhouse with ambient light at a constant 75° F. temperature. All plants received a standard fertigation treatment. Plants were destructively assessed at eight weeks. Each treatment had 20 single-plant replicates. Plants were treated with foliar applications of 2HOP (1 g/L water), […] water), or […] water). Each plant received approximately 50 ml of spray solution (sprayed to drip). All treatments included a wetting agent (polyalkyl glucoside) at 0.025% v/v addition. Plants received a light, cover spray at week 4. Plants were assessed in terms of leaf number per plant, leaf area/plant, and total dry weight/plant. In addition, at harvest, a composite leaf sample (10 leaves/plant, 200 leaves total) from each tomato treatment was collected, pooled with the other replicates, and assessed for elemental content which is presented in Table 18.

oat seedlings [9] = test: Leaf protein content of oat seedlings; type: in vivo; conditions: three weekly foliar treatments 100 micromolar
Method: Sets of oat seedlings were treated or untreated with 2HOP and the total foliar protein content was compared. Seedlings were greenhouse-grown at 75° F. under ambient light and provided a standard complete nutrient. The seedlings were given three weekly foliar treatments with 2HOP (100 micromolar) beginning at the two-true leaf stage.

physchem = conditions: aqueous solutions
oat seedlings [10] = test: Proline accumulation in oat seedlings; type: in vivo; conditions: weekly foliar 100 micromolar, 3 weeks; untreated undetectable
Method: Sets of oat seedlings were grown and either treated or not treated with 2-hydroxy-5-oxoproline. The plants were grown in a greenhouse at 75° F. with ambient light and provided a standard complete nutrient plant food. Weekly foliar treatments were applied with 100 micromolar 2HOP began at the two-true leaf stage and continued for 3 weeks. Leaves from 20 plants were sampled and the free pools of proline were measured.

leaf lettuce seedlings = test: Dry weight and carbon fixation capability in lettuce; type: in vivo; conditions: weekly foliar 100 micromolar
Method: Sets (replicates) of leaf lettuce seedlings were treated with 2HOP or left untreated. Seedlings were grown in a greenhouse (75° F.) with ambient light, supplied with a standard liquid nutrient solution. The treated plants received weekly foliar sprays containing 100 micromolar 2HOP. Each replicate contained 20 plants in a tray. All plants were assessed for each prescribed parameter. For all parameter values vs control p=<0.05. RUBISCO is ribulose bisphosphate carboxylase, the major carbon-fixing enzyme.

[11] = tested on: Fusarium graminearum Schwabe Group 2; type: in vivo, Fusarium graminearum on wheat; conditions: foliar applications to infected wheat; ELISA on pooled grain

## O=C1CC[C@@H](C(=O)O)N1 [L-PGA, L-pyroglutamate]
[1]
  direct suppression of fungal growth (total surface area of colonies): no direct suppression of fungal growth
[2]
  cold damage compared with untreated plants: less cold damage
Plant parasitic nematode
  efficacy of Nemacur in soil plant parasitic nematode population suppression: increased the efficacy
[3]
  increase of emergence versus the untreated: 19%
  leaf emergence compared to the untreated group: increased
Lettuce plants
  tissue levels of aromatic amino acids: increased
[4]
  wheat yield compared to the untreated plots: increased
[5]
  effect on free-living (beneficial nematodes): minimal effect
Grapevines
  yield of grapevines: elevated yield
Oat seedlings [6]
  increase of CO2 fixation compared to the untreated: 21%
Wheat (Winter White)
  phytotoxic impact of herbicides on wheat: suppression of the phytotoxic impact
  canopy biomass compared to the untreated: visual increase in canopy biomass
[7]
  soil Root Knot nematode populations: reduced

## O=C1CC[C@@](O)(C(=O)O)N1 [2HOP, 2-hydroxy-5-oxoproline]
Oat seedlings [8]
  rate of nitrate uptake relative to untreated counterparts: approximately double
Oat seedlings [8]; untreated 5.8
  rate of nitrate uptake: 11.5 umol/gfwt/h
[1]
  direct suppression of fungal growth (total surface area of colonies): no direct suppression of fungal growth
[2]
  cold damage compared with untreated plants: less cold damage
Pepper and tomato plants
  number of leaves, leaf area, and total dry weight: greatest increases
[3]
  leaf emergence compared to the untreated group: increased
Oat seedlings [9]
  total foliar fresh weight, % of the control plants: 183%
  total foliar protein, % of untreated control plants: 252%
  total protein in the foliar parts, % of untreated control plants: 252%
Oat seedlings [9]; control 6.0
  foliar protein concentration: 8.8 mg/g fresh weight
Lettuce plants
  tissue levels of aromatic amino acids: increased
[4]
  wheat yield compared to the untreated plots: increased
physchem
  solubility: 145 to 435 mg/mL (≈ 999 to 3000 mM)
Oat seedlings [6]; higher rate than L-PGA
  CO2 fixation rate, 2HOP compared to L-PGA: > 11%
Oat seedlings [6]; plants 26 days old
  increase of RUBISCO activation: 48%
Oat seedlings [6]
  increase of CO2 fixation compared to the untreated: 34%
Wheat (Winter White)
  phytotoxic impact of herbicides on wheat: suppression of the phytotoxic impact
  canopy biomass compared to the untreated: visual increase in canopy biomass
Oat seedlings [10]
  free proline pools in leaves: 2.6 micromol/g fwt
Leaf lettuce seedlings
  elevation of CO2 fixation: > 50%
  elevation of RUBISCO activation: 129%
Leaf lettuce seedlings; average across all biomass parameters
  elevation of biomass: 34%

## calcium phosphite
[11]
  DON grain levels: largest reduction
